{
  "source": "patent US11859235B2",
  "about": "“Sensor, detection method, reagent and kit” (priority 2020, dated 2024)",
  "test_system": "acetylcholinesterase",
  "experiment": "acetylcholine decomposition by acetylcholinesterase in a mixed system, monitored as pH change rate",
  "format": "biochemical",
  "conditions": "addition of limonene to the mixed system of acetylcholine and acetylcholinesterase; FIG. 3",
  "description": "The reaction of the above formula (1) is a chemical reaction in which acetylcholine acts as a substrate and acetylcholinesterase acts as an enzyme. In general, it is known that a chemical reaction using an enzyme is inhibited by a specific chemical substance for each enzyme, and the reaction rate is reduced or the reaction is stopped. The chemical substance is hereinafter referred to as an “inhibitor”. Here, in the mixed system of acetylcholinesterase and acetylcholine shown in FIG. 2A, when the inhibitor starts to be contained from time t, the cumulative amount of acetylcholine decomposition product after time t changes, that is, the slope of the graph decreases (see FIG. 2B). Therefore, by monitoring the decomposition rate of acetylcholine in the mixed system, it is possible to detect whether or not an inhibitor is present in the mixed system.\nThe target substance to be detected by the sensor according to the present embodiment is an inhibitor against the acetylcholine decomposition reaction of acetylcholinesterase. Examples of this inhibitor include limonene. […] Examples of the inhibitor other than limonene against the acetylcholine decomposition reaction of acetylcholinesterase include terpenoids such as ambrein and pinene, flavonoids such as luteolin, alkaloids such as galantamine, and glycosides such as Cynatroside A.",
  "data": [
    {"smiles": "C=C(C)[C@H]1CC=C(C)CC1", "note": "[limonene]", "values": [
      {"measurement": "effect on the pH change rate of the mixed system of acetylcholine and acetylcholinesterase (inhibitory effect on the acetylcholine decomposition reaction)", "value": "reduces the pH change rate of the mixed system"}
    ]}
  ]
}
